Laboratory results: US20250099478A1, “PLASMA KALLIKREIN INHIBITORS” (Merck Sharp & Dohme LLC, priority 2022, published 2025)

Experiments:
Human plasma kallikrein = target: T1, Human plasma kallikrein (Homo sapiens, UniProt P03952); experiment: Plasma Kallikrein Assay; format: biochemical; settings: purified Human plasma kallikrein 0.5 nM, substrate Acetyl-K-P-R-AFC; read-out: PKal IC50
T1 construct: yields a heavy chain (371 amino acids) and a light chain (248 amino acids); purchased Enzyme Research Laboratories
In short: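 Purified human plasma kallikrein (0.5 nM) hydrolysing fluorogenic Acetyl-K-P-R-AFC ([…]) in 50 mM HEPES pH 7.4, 150 mM NaCl, 5 mM CaCl2, 0.1% PEG 8000, at rt or 37 °C after enzyme–inhibitor equilibration. IC50 from four-parameter logistic fit; Ki via Cheng–Prusoff.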

human factor XIa = target: T2, human factor XIa (Homo sapiens, UniProt P03951); experiment: Factor XIa Assay; format: biochemical; settings: human factor XIa 0.04 nM, substrate GPR-AFC, 25° C.
T2 construct: with human (0.04 nM) factor XIa
Experimental: The effectiveness of a compound of the present invention as an inhibitor of Coagulation factor XIa can be determined using a relevant purified serine protease, and an appropriate synthetic substrate. The rate of hydrolysis of the chromogenic or fluorogenic substrate by the relevant serine protease was measured both in the absence and presence of compounds of the present invention. Assays were conducted at rt or at 37° C. […] A decrease in the rate of fluorescence change in the presence of inhibitor is indicative of enzyme inhibition. Such methods are known to one skilled in the art. The results of this assay are expressed as the half-maximal inhibitory concentrations (IC50), or the inhibitory constant, Ki.
Compounds were pre-incubated for 30 min at 25° C. with human (0.04 nM) factor XIa in 50 mM HEPES buffer with 150 mM sodium chloride, 5 mM calcium chloride, 0.1% PEG 8000, pH 7.4. factor XIa enzymatic activity was determined by addition of the substrate glycine-proline-arginine-7-amido-4-trifluoromethylcoumarin (GPR-AFC) and measurement of the fluorescence at 400/505 nm after a 60 min incubation at 25° C. The % inhibition for each data point was calculated from the data and analyzed using the log (inhibitor) vs. response four parameters equation to determine the half-maximal inhibitory concentrations (IC50). The IC50 were converted to equilibrium inhibitory constants (Ki) using the Cheng-Prusoff equation.

T2 sequence (P03951 388-625 limits assumed): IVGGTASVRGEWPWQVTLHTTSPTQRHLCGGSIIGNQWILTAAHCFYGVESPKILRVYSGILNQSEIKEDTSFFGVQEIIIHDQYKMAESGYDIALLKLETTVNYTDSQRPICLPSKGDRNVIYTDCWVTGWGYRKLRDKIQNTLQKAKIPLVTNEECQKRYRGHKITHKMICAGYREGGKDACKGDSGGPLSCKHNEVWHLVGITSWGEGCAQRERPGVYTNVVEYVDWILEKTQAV
T2 sequence (P03951 19-387 partner limits assumed): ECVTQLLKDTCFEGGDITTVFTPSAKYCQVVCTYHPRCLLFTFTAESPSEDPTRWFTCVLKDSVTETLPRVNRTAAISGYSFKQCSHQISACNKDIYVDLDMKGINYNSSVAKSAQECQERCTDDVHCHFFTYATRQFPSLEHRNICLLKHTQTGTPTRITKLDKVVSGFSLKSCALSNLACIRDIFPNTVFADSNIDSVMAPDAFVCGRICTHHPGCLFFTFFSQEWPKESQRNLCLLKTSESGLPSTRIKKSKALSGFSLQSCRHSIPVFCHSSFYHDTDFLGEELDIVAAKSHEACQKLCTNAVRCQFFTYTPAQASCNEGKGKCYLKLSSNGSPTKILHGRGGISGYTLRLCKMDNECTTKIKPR
T1 sequence (P03952 391-638 limits assumed): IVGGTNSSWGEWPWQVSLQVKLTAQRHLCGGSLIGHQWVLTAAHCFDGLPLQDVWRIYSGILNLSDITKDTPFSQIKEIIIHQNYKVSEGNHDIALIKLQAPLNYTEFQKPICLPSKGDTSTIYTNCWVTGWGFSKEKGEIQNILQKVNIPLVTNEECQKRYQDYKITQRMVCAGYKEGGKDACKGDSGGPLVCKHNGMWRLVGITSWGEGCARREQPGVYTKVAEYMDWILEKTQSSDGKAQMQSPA
T1 sequence (P03952 20-390 partner limits assumed): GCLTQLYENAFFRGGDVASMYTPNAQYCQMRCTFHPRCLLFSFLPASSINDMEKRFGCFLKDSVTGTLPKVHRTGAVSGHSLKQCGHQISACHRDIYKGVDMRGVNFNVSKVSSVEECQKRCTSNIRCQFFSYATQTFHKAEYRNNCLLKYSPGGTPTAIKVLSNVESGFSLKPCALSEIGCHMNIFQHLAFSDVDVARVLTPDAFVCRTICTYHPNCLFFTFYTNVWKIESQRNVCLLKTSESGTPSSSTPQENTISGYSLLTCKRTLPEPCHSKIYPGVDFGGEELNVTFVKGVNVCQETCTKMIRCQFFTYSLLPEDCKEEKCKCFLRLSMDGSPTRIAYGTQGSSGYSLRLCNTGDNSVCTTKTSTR

O=C1Nc2ccc(Cl)c(F)c2[C@@]2(CCCN(C(=O)c3cnn(Cc4ccnc(C(F)(F)F)c4)c3)C2)O1 [Example 7, (R)-6-Chloro-5-fluoro-1′-(1-((2-(trifluoromethyl)pyridin-4-yl)methyl)-1H-pyrazole-4-carbonyl)spiro[benzo[d][1,3]oxazine-4,3′-piperidin]-2(1H)-one]
IC50 (Human plasma kallikrein): 0.0375 µM
IC50 (human factor XIa): 0.881 µM

CCC(c1ccc2c(c1)OCO2)n1cc(C(=O)N2CCC[C@@]3(C2)OC(=O)Nc2ccc(Cl)c(F)c23)cn1 (single isomer, unassigned) [Example 33]
IC50 (Human plasma kallikrein): 0.0042 µM
IC50 (human factor XIa): 4.76 µM

CCC(c1c(C)noc1C)n1cc(C(=O)N2CCC[C@@]3(C2)OC(=O)Nc2ccc(Cl)c(F)c23)cn1 (single isomer, unassigned) [Example 44]
IC50 (Human plasma kallikrein): 0.0059 µM
IC50 (human factor XIa): 2.42 µM

CCC(c1cccc(S(C)(=O)=O)c1)n1cc(C(=O)N2CCC[C@@]3(C2)OC(=O)Nc2ccc(Cl)c(F)c23)cn1 (single isomer, unassigned) [Example 31]
IC50 (Human plasma kallikrein): 0.009 µM
IC50 (human factor XIa): 2.46 µM

CCC(c1ccnc(C(F)(F)F)c1)n1cc(C(=O)N2CCC[C@@]3(C2)OC(=O)Nc2ccc(Cl)c(F)c23)cn1 (single isomer, unassigned) [Example 37]
IC50 (Human plasma kallikrein): 0.0026 µM
IC50 (human factor XIa): 1.45 µM

COCC(c1ccccc1)c1n[nH]c(C(=O)N2CCC[C@@]3(C2)OC(=O)Nc2ccc(Cl)c(F)c23)n1 (stereo partly drawn) [Example 130, (4R)-6-Chloro-5-fluoro-1′-(3-(2-methoxy-1-phenylethyl)-1H-1,2,4-triazole-5-carbonyl)spiro[benzo[d][1,3]oxazine-4,3′-piperidin]-2(1H)-one]
IC50 (Human plasma kallikrein): 0.0053 µM
IC50 (human factor XIa): 1.36 µM

CCC(c1ccc(F)cc1)c1nnc(C(=O)N2CC(C)(C)C[C@@]3(C2)OC(=O)Nc2ccc(Cl)c(F)c23)[nH]1 (single isomer, unassigned) [Example 102]
IC50 (Human plasma kallikrein): 0.0036 µM
IC50 (human factor XIa): 1.13 µM

O=C1Nc2ccc(Cl)c(F)c2[C@@]2(CCCN(C(=O)c3nnc(C(c4ccccc4)C4CC4)[nH]3)C2)O1 (single isomer, unassigned) [Example 106]
IC50 (Human plasma kallikrein): 0.0016 µM
IC50 (human factor XIa): 0.795 µM

O=C1Nc2ccc(Cl)c(F)c2[C@@]2(CCCN(C(=O)c3cnn([C@](CO)(CC4CC4)c4ccc(F)cc4)c3)C2)O1 [Example 34, (R)-6-Chloro-1′-(1-((R)-1-cyclopropyl-2-(4-fluorophenyl)-3-hydroxypropan-2-yl)-1H-pyrazole-4-carbonyl)-5-fluorospiro[benzo[d][1,3]oxazine-4,3′-piperidin]-2(1H)-one]
IC50 (Human plasma kallikrein): 0.0131 µM
IC50 (human factor XIa): 0.27 µM

CCC(c1ccc(F)c(Cl)c1)c1nnc(C(=O)N2CCC[C@@]3(C2)OC(=O)Nc2ccc(Cl)c(F)c23)[nH]1 (single isomer, unassigned) [Example 97]
IC50 (Human plasma kallikrein): 0.0138 µM
IC50 (human factor XIa): 8.75 µM

CCC(F)(c1ccc(F)cc1)c1n[nH]c(C(=O)N2CCC[C@@]3(C2)OC(=O)Nc2ccc(Cl)c(F)c23)n1 (single isomer, unassigned) [Example 129, (3′R)-6-Chloro-5-fluoro-1′-(3-(1-fluoro-1-(4-fluorophenyl)propyl)-1H-1,2,4-triazole-5-carbonyl)spiro[benzo[d][1.3]oxazine-4,3′-piperidin]-2(1H)-one]
IC50 (Human plasma kallikrein): 0.0089 µM
IC50 (human factor XIa): 4.3 µM

O=C1Nc2ccc(Cl)c(F)c2[C@@]2(CCCN(C(=O)c3cnc(C(c4ccc(F)cc4)C(F)(F)F)[nH]3)C2)O1 (single isomer, unassigned) [Example 82]
IC50 (Human plasma kallikrein): 0.0425 µM
IC50 (human factor XIa): 7.39 µM

CO[C@H](C)[C@H](c1ccccc1)n1cc(C(=O)N2CCC[C@@]3(C2)OC(=O)Nc2ccc(Cl)c(F)c23)cn1 [Example 15, (R)-6-Chloro-5-fluoro-1′-(1-((1S,2R)-2-methoxy-1-phenylpropyl)-1H-pyrazole-4-carbonyl)spiro[benzo[d][1,3]oxazine-4,3′-piperidin]-2(1H)-one]
IC50 (Human plasma kallikrein): 0.0381 µM
IC50 (human factor XIa): 2.71 µM

CCC(c1c(C)noc1C)n1cc(C(=O)N2CCC[C@@]3(C2)OC(=O)Nc2ccc(Cl)c(F)c23)cn1 (single isomer, unassigned) [Example 43]
IC50 (Human plasma kallikrein): 0.0271 µM
IC50 (human factor XIa): 4.67 µM
